According to patent US9907842B2, “Cytotoxic T lymphocyte inducing immunogens for prevention treatment and diagnosis of cancer” (Immunotope, Inc., priority 2009, dated 2018):

Columns and labels:
Assay type in all cases: cell-based, human
[1] = test system: T2 cells loaded with the corresponding synthetic peptide and HLA-A2+ lung cancer cells lines [CRL-5865, CRL-5944 and NCI-H522]; assay: Interferon-γ ELISpot with peptide-specific CTL from healthy HLA-A2+ donors; details: CTL from PBMC of two healthy HLA-A2+ donors; FIG. 1
Protocol: (§1) PBMC were purified from HLA-A2^+ normal donor blood using lymphocyte separation media (Cappel ICN Biomedical, Aurora, Ohio). PBMC (5.3×10^6) were added to individual wells of a 24-well cluster plate (Costar, Corning, N.Y.) in 1.0 ml of serum-free AIM-V medium (Life Technologies) and allowed to adhere for 60 min at 37° C. Non-adherent cells were removed and saved as a source of effector T cells. Adherent PBMC (˜8.3×10^5/well) were then pulsed with […] synthetic peptides in serum-free AIM-V medium containing […] β2-microglobulin (Calbiochem-Novabiochem, San Diego, Calif.) and incubated for 2 h at 37° C. Unbound peptides were aspirated and the wells washed with media.
(§2) Monocyte-derived DC were generated as follows. PBMC (5.3×10^7) were allowed to adhere in T-75 flasks (Corning) in 10 ml of serum-free AIM-V medium for 60 min at 37° C. Non-adherent cells were collected as a source of effector T cells and pooled with the previous collection above. Adherent monocytes in flasks were then exposed to recombinant human granulocyte macrophage colony stimulating factor (GM-CSF, 25 ng/ml; Peprotech) and recombinant human IL-4 (100 ng/ml; Peprotech) in 10 ml of AIM-V medium containing 10% heat-inactivated FBS. DC obtained by this method [immature DC (iDC)] are characterized by expression of low levels of CD83, CD80, CD86, and HLA class I and class II molecules (data not shown).
(§3) Mature DC (mDC) were obtained by exposing day 5 DC cultures to recombinant soluble CD40 ligand (sCD40L; Peprotech) at […] for 24 h in the presence of 25 ng/ml GM-CSF and are characterized by expression of high levels of CD80, CD86, and HLA class I and class II molecules.mDC were harvested, washed, pulsed with 5 mg/ml peptide in serum-free AIM-V medium and irradiated (5000 rad) prior to use as stimulators.
(§4) The protocol used here is a modification of the method described by Plebanski et al. (Eur. J. Immunol. 25:1783, (1995)). CTL to peptide were generated by 3±4 cycles of stimulation with peptide-loaded APC. For the first round of stimulation (day 0), T cells or non-adherent PBMC from above (2.3×10^6/ml or 4.3×10^6 per well) were added in bulk (CD4^+, CD8^+, NK, etc.) to adherent PBMC-loaded peptides in serum-free medium ([…]), β2-microglobulin ([…]) (Calbiochem-Novabiochem), recombinant human IL-7 (5 ng/ml) (Peprotech) and keyhole limpet hemocyanin (5 mg/ml) (Sigma, St Louis, Mo.). Cultures were re-stimulated with iDC every 7 days, pulsed with varying amounts of peptide (second round 25 mg/ml, third round 10 mg/ml) and irradiated (5000 rad) on day 8. At each re-stimulation, the T cells were transferred to new plates by first aspirating 70% of spent media in wells and then transferring the pooled contents to a new plate. Fresh IL-7 was added at each re-stimulation. The responder:stimulator (T cell:DC) ratio was set at 20 for each stimulation. Recombinant human IL-2 (10 U/ml) was added on day 5 after each re-stimulation.
(§5) Prior to CTL assays, the T cells were harvested and CD8^+ T cells were purified by positive selection using CD8^+ microbeads immunomagnetic cell separation with MACS kit (Miltenyi Biotec, Auburn, Calif.). If a fourth round of stimulation was necessary following CTL analysis, the CTL were pulsed as before, except with 5±10 mg/ml of peptide.
(§6) The peptide specific CTLs were assessed for recognition and/or lysis of peptide-loaded T2 cells as well as various lung normal and tumor target cells. After two to four rounds of restimulation, cultures were tested for cytotoxic activity against the peptide loaded and normal and tumor targets. Peptide-pulsed T2 cells (1 μg/ml peptide for 2 hr at 37° C.), irrelevant HLA-A2 peptides pulsed T2 cells were used as controls. […]

[2] = test system: T2 cells loaded with the corresponding synthetic peptide and HLA-A2+ lung cancer cells lines [CRL-5865, CRL-5944 and NCI-H522]; assay: Granzyme B ELISpot with peptide-specific CTL from healthy HLA-A2+ donors; details: CTL from PBMC of two healthy HLA-A2+ donors; FIG. 2
Protocol: as §1, §2, §3, §4, §5, §6

[3] = test system: T2 cells loaded with the corresponding synthetic peptide and HLA-A2+ lung cancer cells lines [CRL-5865, CRL-5944 and NCI-H522]; assay: Interferon-γ ELISpot with peptide-specific CTL from a HLA-A2+ lung cancer patient; details: CTL from PBMC of a HLA-A2+ donor with lung cancer; FIG. 3A
Protocol: as §4, with “Recombinant human IL-2 (10 U/ml) was added on day 5 after each re-stimulation.” left out
(§7) The peptide specific CTLs were assessed for recognition and/or lysis of peptide-loaded T2 cells as well as various lung normal and tumor target cells. […] Recognition of specific antigens by peptide-specific CTL was measured by production of IFN-gamma and granzyme in the ELISPOT assay (Ramakrishna, V., M. M. Ross, M. Petersson, C. C. Gatlin, C. E. Lyons, C. L. Miller, H. E. Myers, M. McDaniel, L. R. Karns, R. Kiessling, G. Parmiani, and D.C. Flyer. (2003) Int Immunol 15:751-763; Morse, M. A., S. K. Nair, P. J. Mosca, A. C. Hobeika, T. M. Clay, Y. Deng, D. Boczkowski, A. Proia, D. Neidzwiecki, P. A. Clavien, H. I. Hurwitz, J. Schlom, E. Gilboa, and H. K. Lyerly. (2003) Cancer Invest 21:341-349). […]
PBMC from a HLA-A2^+ donor with lung cancer were in vitro stimulated with synthetic peptides corresponding to each of the three selected lung cancer epitopes (SEQ ID 82, SEQ ID 34 and SEQ ID 67). […] Interferon-γ producing cells were quantitated using an Immunospot reader. […]

[4] = test system: T2 cells loaded with the corresponding synthetic peptide and HLA-A2+ lung cancer cells lines [CRL-5865, CRL-5944 and NCI-H522]; assay: Granzyme B ELISpot with peptide-specific CTL from a HLA-A2+ lung cancer patient; details: CTL from PBMC of a HLA-A2+ lung cancer patient; FIG. 3B
Protocol: The protocol used here is a modification of the method described by Plebanski et al. (Eur. J. Immunol. 25:1783, (1995)). CTL to peptide were generated by 3±4 cycles of stimulation with peptide-loaded APC. For the first round of stimulation (day 0), T cells or non-adherent PBMC from above (2.3×10^6/ml or 4.3×10^6 per well) were added in bulk (CD4^+, CD8^+, NK, etc.) to adherent PBMC-loaded peptides in serum-free medium ([…]), β2-microglobulin ([…]) (Calbiochem-Novabiochem), recombinant human IL-7 (5 ng/ml) (Peprotech) and keyhole limpet hemocyanin (5 mg/ml) (Sigma, St Louis, Mo.). Cultures were re-stimulated with iDC every 7 days, pulsed with varying amounts of peptide (second round 25 mg/ml, third round 10 mg/ml) and irradiated (5000 rad) on day 8. At each re-stimulation, the T cells were transferred to new plates by first aspirating 70% of spent media in wells and then transferring the pooled contents to a new plate. Fresh IL-7 was added at each re-stimulation. The responder:stimulator (T cell:DC) ratio was set at 20 for each stimulation. Recombinant human IL-2 (10 U/ml) was added on day 5 after each re-stimulation. […]
as §7
PBMC from a HLA-A2^+ lung cancer patient were in vitro stimulated with synthetic peptides corresponding to each of the three selected lung cancer epitopes (SEQ ID 82, SEQ ID 34 and SEQ ID 67). […] Granzyme B producing cells were quantitated using an Immunospot reader. […]

Sequence | recognition of targets by peptide-specific CTL (Interferon-γ producing cells) [1] | cytolytic activity of peptide-specific CTL (Granzyme B producing cells) [2] | recognition of targets by peptide-specific CTL (Interferon-γ producing cells) [3] | cytolytic activity of peptide-specific CTL (Granzyme B producing cells) [4]
DQFQKVLSL (listed as Homo sapiens) [SEQ ID 08] | recognize peptide loaded targets as well as lung cancer cells | are cytolytic | – | –
GMYGKIAVMEL (listed as Homo sapiens) [SEQ ID 19] | recognize peptide loaded targets as well as lung cancer cells | are cytolytic | – | –
KIYQWINEL (listed as Homo sapiens) [SEQ ID 29] | recognize peptide loaded targets as well as lung cancer cells | are cytolytic | – | –
KLGEFAKVLEL (listed as Homo sapiens) [SEQ ID 33] | recognize peptide loaded targets as well as lung cancer cells | are cytolytic | – | –
KLIPFLEKL (listed as Homo sapiens) [SEQ ID 34] | recognize peptide loaded targets as well as lung cancer cells | are cytolytic | recognize peptide loaded targets as well as lung cancer cells | are cytolytic
KLSLVAAML (listed as Homo sapiens) [SEQ ID 36] | recognize peptide loaded targets as well as lung cancer cells | are cytolytic | – | –
RLLEVPVML (listed as Homo sapiens) [SEQ ID 67] | recognize peptide loaded targets as well as lung cancer cells | are cytolytic | recognize peptide loaded targets as well as lung cancer cells | are cytolytic
VLVPVLVMV (listed as Homo sapiens) [SEQ ID 82] | recognize peptide loaded targets as well as lung cancer cells | are cytolytic | recognize peptide loaded targets as well as lung cancer cells | are cytolytic
